Source: patent US20230278972A1, “SUBSTITUTED HALOALKYL SULFONANILIDE HERBICIDES” (FMC Corporation, priority 2020, published 2023)

Experiments:
Format in all cases: in vivo
[1] = system: barnyardgrass (Echinochloa crus-galli); experiment: Test A preemergence, barnyardgrass; conditions: Preemergence; for Barnyardgrass plant response rating: 125 g ai/ha, visual injury on 0 to 100 scale (0 no effect, 100 complete control), approximately 10 days; for Plant response rating, Barnyardgrass: 500 g ai/ha, 0 to 100 scale (0 no effect, 100 complete control)
Summary of the method: (§1)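 After sowing into a sand-amended loam, pots for the preemergence test were treated by spraying directly onto soil. In parallel, seedlings at the one- to two-leaf stage and 2 to 10 cm tall were treated postemergence with the identical surfactant-containing formulation.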

kochia (Bassia scoparia) [2] = experiment: Test A preemergence, kochia; conditions: Preemergence; for Kochia plant response rating: 125 g ai/ha, visual injury on 0 to 100 scale (0 no effect, 100 complete control), approximately 10 days; for Plant response rating, Kochia: 500 g ai/ha, 0 to 100 scale (0 no effect, 100 complete control)
Summary of the method: as §1

[3] = system: ragweed (common ragweed, Ambrosia artemisiifolia); experiment: Test A preemergence, ragweed; conditions: Preemergence; for Ragweed plant response rating: 125 g ai/ha, visual injury on 0 to 100 scale (0 no effect, 100 complete control), approximately 10 days; for Plant response rating, Ragweed: 500 g ai/ha, 0 to 100 scale (0 no effect, 100 complete control)
Summary of the method: as §1

[4] = system: Ryegrass, Italian (Italian ryegrass, Lolium multiflorum); experiment: Test A preemergence, Ryegrass, Italian; conditions: Preemergence; for Ryegrass, Italian plant response rating: 125 g ai/ha, visual injury on 0 to 100 scale (0 no effect, 100 complete control), approximately 10 days; for Plant response rating, Ryegrass, Italian: 500 g ai/ha, 0 to 100 scale (0 no effect, 100 complete control)
Summary of the method: as §1

[5] = system: Foxtail, Giant (giant foxtail, Setaria faberi); experiment: Test A preemergence, Foxtail, Giant; conditions: Preemergence; for Foxtail, Giant plant response rating: 125 g ai/ha, visual injury on 0 to 100 scale (0 no effect, 100 complete control), approximately 10 days; for Plant response rating, Foxtail, Giant: 500 g ai/ha, 0 to 100 scale (0 no effect, 100 complete control)
Summary of the method: as §1

[6] = system: pigweed (Amaranthus retroflexus); experiment: Test A preemergence, pigweed; conditions: for Pigweed plant response rating: 125 g ai/ha, visual injury on 0 to 100 scale (0 no effect, 100 complete control), approximately 10 days; for Plant response rating, Pigweed: 500 g ai/ha, 0 to 100 scale (0 no effect, 100 complete control)
Summary of the method: (§2)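 Greenhouse pot test in a loam–sand blend; compounds delivered in a non-phytotoxic solvent carrying a surfactant, applied either as a directed spray to soil at seeding or over seedlings 2 to 10 cm high with one to two leaves.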

[7] = system: barnyardgrass (Echinochloa crus-galli); experiment: Test A postemergence, barnyardgrass; conditions: Postemergence, 0 to 100 scale (0 no effect, 100 complete control); for Plant response rating, Barnyardgrass: 125 g ai/ha; for Barnyardgrass plant response rating: 500 g ai/ha, visual injury vs untreated controls after approx. 10 days
Summary of the method: as §2

kochia (Bassia scoparia) [8] = experiment: Test A postemergence, kochia; conditions: Postemergence, 0 to 100 scale (0 no effect, 100 complete control); for Plant response rating, Kochia: 125 g ai/ha; for Kochia plant response rating: 500 g ai/ha, visual injury vs untreated controls after approx. 10 days
Summary of the method: as §1

[9] = system: ragweed (common ragweed, Ambrosia artemisiifolia); experiment: Test A postemergence, ragweed; conditions: Postemergence, 0 to 100 scale (0 no effect, 100 complete control); for Plant response rating, Ragweed: 125 g ai/ha; for Ragweed plant response rating: 500 g ai/ha, visual injury vs untreated controls after approx. 10 days
Summary of the method: as §1

[10] = system: Ryegrass, Italian (Italian ryegrass, Lolium multiflorum); experiment: Test A postemergence, Ryegrass, Italian; conditions: Postemergence, 0 to 100 scale (0 no effect, 100 complete control); for Plant response rating, Ryegrass, Italian: 125 g ai/ha; for Ryegrass, Italian plant response rating: 500 g ai/ha, visual injury vs untreated controls after approx. 10 days
Summary of the method: as §1

[11] = system: Foxtail, Giant (giant foxtail, Setaria faberi); experiment: Test A postemergence, Foxtail, Giant; conditions: Postemergence, 0 to 100 scale (0 no effect, 100 complete control); for Plant response rating, Foxtail, Giant: 125 g ai/ha; for Foxtail, Giant plant response rating: 500 g ai/ha, visual injury vs untreated controls after approx. 10 days
Summary of the method: as §1

[12] = system: pigweed (Amaranthus retroflexus); experiment: Test A postemergence, pigweed; conditions: Postemergence, 0 to 100 scale (0 no effect, 100 complete control); for Plant response rating, Pigweed: 125 g ai/ha; for Pigweed plant response rating: 500 g ai/ha, visual injury vs untreated controls after approx. 10 days
Summary of the method: as §1

[13] = system: wheat (Triticum aestivum); experiment: Test A postemergence, wheat; conditions: Postemergence, 0 to 100 scale (0 no effect, 100 complete control); for Plant response rating, Wheat: 125 g ai/ha; for Wheat plant response rating: 500 g ai/ha, visual injury vs untreated controls after approx. 10 days
Summary of the method: as §2

corn (Zea mays) = experiment: Test A postemergence, corn; conditions: Postemergence, 0 to 100 scale (0 no effect, 100 complete control); for Plant response rating, Corn: 125 g ai/ha; for Corn plant response rating: 500 g ai/ha, visual injury vs untreated controls after approx. 10 days
Summary of the method: as §1

[14] = system: blackgrass (Alopecurus myosuroides); experiment: Test A postemergence, blackgrass; conditions: Postemergence, 0 to 100 scale (0 no effect, 100 complete control); for Plant response rating, Blackgrass: 125 g ai/ha; for Blackgrass plant response rating: 500 g ai/ha, visual injury vs untreated controls after approx. 10 days
Summary of the method: as §1

[15] = system: galium (catchweed bedstraw, Galium aparine); experiment: Test A postemergence, galium; conditions: Postemergence, 0 to 100 scale (0 no effect, 100 complete control); for Plant response rating, Galium: 125 g ai/ha; for Galium plant response rating: 500 g ai/ha, visual injury vs untreated controls after approx. 10 days
Summary of the method: as §2

Row | SMILES | Barnyardgrass plant response rating [1] | Plant response rating, Barnyardgrass [1] | Kochia plant response rating (kochia (Bassia scoparia) [2]) | Plant response rating, Kochia (kochia (Bassia scoparia) [2]) | Ragweed plant response rating [3] | Plant response rating, Ragweed [3] | Ryegrass, Italian plant response rating [4] | Plant response rating, Ryegrass, Italian [4] | Foxtail, Giant plant response rating [5] | Plant response rating, Foxtail, Giant [5] | Pigweed plant response rating [6] | Plant response rating, Pigweed [6] | Barnyardgrass plant response rating [7] | Kochia plant response rating (kochia (Bassia scoparia) [8]) | Ragweed plant response rating [9] | Ryegrass, Italian plant response rating [10] | Foxtail, Giant plant response rating [11] | Pigweed plant response rating [12] | Wheat plant response rating [13] | Corn plant response rating (corn (Zea mays)) | also measured
1 | Cc1cc(C)c(N(S(=O)(=O)C(F)(F)F)S(=O)(=O)C(F)(F)F)cc1C(=O)N(C)CC1CC1 [Compound 169] | 30 | 100 | 0 | 30 | 40 | 80 | 50 | 100 | 20 | 90 | 60 | 80 | 90 | 50 | 90 | 30 | 40 | 50 | 0 | 90 | Plant response rating, Barnyardgrass [7]: 40; Plant response rating, Kochia (kochia (Bassia scoparia) [8]): 20; Plant response rating, Ragweed [9]: 60; Plant response rating, Ryegrass, Italian [10]: 10; Plant response rating, Foxtail, Giant [11]: 10; Plant response rating, Pigweed [12]: 40; Plant response rating, Wheat [13]: 0; Plant response rating, Corn (corn (Zea mays)): 50; Plant response rating, Blackgrass [14]: 0; Blackgrass plant response rating [14]: 20; Plant response rating, Galium [15]: 80; Galium plant response rating [15]: 90
2 | CC(=O)N(c1cc(-c2ccnn(C)c2=O)c(C)cc1C)S(=O)(=O)C(F)(F)F [Compound 56] | 100 | 100 | 40 | 100 | 70 | 90 | 100 | 100 | 0 | 20 | 40 | 90 | 90 | 60 | 90 | 80 | 90 | 40 | 70 | 80 | Plant response rating, Barnyardgrass ([7]; visual injury approx. 10 days): 90; Plant response rating, Kochia (kochia (Bassia scoparia) [8]; visual injury approx. 10 days): 50; Plant response rating, Ragweed ([9]; visual injury approx. 10 days): 60; Plant response rating, Ryegrass, Italian ([10]; visual injury approx. 10 days): 0; Plant response rating, Foxtail, Giant ([11]; visual injury approx. 10 days): 90; Plant response rating, Pigweed ([12]; visual injury approx. 10 days): 40; Plant response rating, Wheat ([13]; visual injury approx. 10 days): 50; Plant response rating, Corn (corn (Zea mays); visual injury approx. 10 days): 10; Plant response rating, Blackgrass ([14]; visual injury approx. 10 days): 50; Blackgrass plant response rating [14]: 50; Plant response rating, Galium ([15]; visual injury approx. 10 days): 90; Galium plant response rating [15]: 90
3 | C#CCN(CC#C)C(=O)c1cc(NS(=O)(=O)C(F)(F)F)c(C)cc1C [Compound 187] | 100 | 100 | 80 | 80 | 70 | 90 | 100 | 100 | 100 | 100 | 70 | 80 | 90 | 70 | 90 | 80 | 90 | 60 | 70 | 90 | Plant response rating, Barnyardgrass [7]: 90; Plant response rating, Kochia (kochia (Bassia scoparia) [8]): 50; Plant response rating, Ragweed [9]: 80; Plant response rating, Ryegrass, Italian [10]: 90; Plant response rating, Foxtail, Giant [11]: 80; Plant response rating, Pigweed [12]: 30; Plant response rating, Wheat [13]: 70; Plant response rating, Corn (corn (Zea mays)): 80; Plant response rating, Blackgrass [14]: 20; Blackgrass plant response rating [14]: 20; Plant response rating, Galium [15]: 80; Galium plant response rating [15]: 80
